{"source": "ChEMBL document CHEMBL3865836", "about": "“Biosynthesis-Inspired Total Synthesis of Bioactive Styryllactones (+)-Goniodiol, (6S,7S,8S)-Goniodiol, (-)-Parvistone D, and (+)-Parvistone E” (J Nat Prod, 2016)", "key": {"[1]": {"assay": "Cytotoxicity against human A549 cells", "assay_type": "functional", "conditions": "read-out: ED50 (the source's name)"}, "[2]": {"assay": "Cytotoxicity against mouse P388 cells", "assay_type": "functional, cell-based"}, "[3]": {"assay": "Cytotoxicity against human Bel7470 cells by trypan blue dye exclusion method", "assay_type": "functional, cell-based"}, "[4]": {"assay": "Cytotoxicity against human Bcap32 cells by trypan blue dye exclusion method", "assay_type": "functional, cell-based"}, "[5]": {"assay": "Cytotoxicity against human HeLa cells by trypan blue dye exclusion method", "assay_type": "functional, cell-based"}}, "data": [{"smiles": "O=C1C=CC[C@H]([C@H](O)[C@H](O)c2ccccc2)O1", "note": "[GONIODIOL]", "values": [{"measurement": "EC50", "setting": "[1]", "result": 0.51, "unit": "µM"}, {"measurement": "IC50", "setting": "[2]", "result": 19.5, "unit": "µM"}]}, {"smiles": "O=C1C=CC[C@H]([C@@H](O)[C@H](O)c2ccccc2)O1", "values": [{"measurement": "IC50", "setting": "[3]", "result": 4.1, "unit": "µM"}, {"measurement": "IC50", "setting": "[4]", "result": 54.7, "unit": "µM"}, {"measurement": "IC50", "setting": "[5]", "result": 12.8, "unit": "µM"}]}]}
